Reference: US8785460B2, “Tricyclic compounds and use thereof” (Takeda Pharmaceutical Company Limited, priority 2008, dated 2014)

Row | melting point | Compound
1 | 251 to 253 °C | CCC(NC(=O)C1CC1)c1ccc(Cl)c2nc3n(c12)CCCN3c1ccc(Cl)cc1Cl (stereo not shown) [Example 441, N-{1-[9-Chloro-1-(2,4-dichlorophenyl)-1,2,3,4-tetrahydropyrimido[1,2-a]benzimidazol-6-yl]propyl}cyclopropanecarboxamide]
2 | 198 to 200 °C | NC(=O)c1cccc2nc3n(c12)CCCN3c1ccc(Cl)cc1Cl [Example 83, 1-(2,4-Dichlorophenyl)-1,2,3,4-tetrahydropyrimido[1,2-a]benzimidazole-6-carboxamide]
3 | 168 to 170 °C | Cc1nc(NC2CC2)ccc1N1CCCn2c1nc1c(Cl)ccc(C(OC(F)F)C(F)(F)F)c12 (stereo not shown) [Example 299, 5-{9-Chloro-6-[1-(difluoromethoxy)-2,2,2-trifluoroethyl]-3,4-dihydropyrimido[1,2-a]benzimidazol-1(2H)-yl}-N-cyclopropyl-6-methylpyridin-2-amine]
4 | 113 to 114 °C | CCN(CC)c1cccc2nc3n(c12)CCC(=O)N3c1ccc(Cl)cc1Cl [Example 19, 1-(2,4-Dichlorophenyl)-6-(diethylamino)-3,4-dihydropyrimido[1,2-a]benzimidazol-2(1H)-one]
5 | 186 to 188 °C | CCC(O)c1cccc2nc3n(c12)CCCN3c1ccc(Cl)cc1Cl (stereo not shown) [Example 92, 1-[1-(2,4-Dichlorophenyl)-1,2,3,4-tetrahydropyrimido[1,2-a]benzimidazol-6-yl]propan-1-ol]
6 | > 300 °C | CCC(CC)c1ccc(Cl)c2nc3n(c12)CCN3c1ccc(Cl)cc1C(N)=O [Example 223, 5-Chloro-2-[8-chloro-5-(1-ethylpropyl)-2,3-dihydro-1H-imidazo[1,2-a]benzimidazol-1-yl]benzamide]
7 | 237 to 239 °C | O=S(=O)(CC(F)(F)F)NC(c1ccc(Cl)c2nc3n(c12)CCCN3c1c(Cl)cc(Cl)cc1Cl)C(F)(F)F (stereo not shown) [Example 417, N-{1-[9-Chloro-1-(2,4,6-trichlorophenyl)-1,2,3,4-tetrahydropyrimido[1,2-a]benzimidazol-6-yl]-2,2,2-trifluoroethyl}-2,2,2-trifluoroethanesulfonamide]
8 | 131 to 133 °C | CCN(CC)c1cccc2nc3n(c12)CCCN3c1ccc(Cl)cc1Cl [Example 20, 1-(2,4-Dichlorophenyl)-N,N-diethyl-1,2,3,4-tetrahydropyrimido[1,2-a]benzimidazol-6-amine]
9 | 250 to 252 °C | COc1nc(C)c(N2CCCn3c2nc2c(C#N)ccc(C(OC(F)F)C(F)(F)F)c23)c(C)n1 (stereo not shown) [Example 520, 6-[1-(Difluoromethoxy)-2,2,2-trifluoroethyl]-1-(2-methoxy-4,6-dimethylpyrimidin-5-yl)-1,2,3,4-tetrahydropyrimido[1,2-a]benzimidazole-9-carbonitrile]
10 | 208 to 209 °C | OC(c1cccc2nc3n(c12)CCCN3c1ccc(Cl)cc1Cl)C1CC1 (stereo not shown) [Example 95, Cyclopropyl[1-(2,4-dichlorophenyl)-1,2,3,4-tetrahydropyrimido[1,2-a]benzimidazol-6-yl]methanol]
11 | 233 to 236 °C | Cc1nc(N2CCCC2)ccc1N1CCCn2c1nc1c(Cl)ccc(C(OC(F)F)C(F)(F)F)c12 (stereo not shown) [Example 294, 9-Chloro-6-[1-(difluoromethoxy)-2,2,2-trifluoroethyl]-1(2-methyl-6-pyrrolidin-1-ylpyridin-3-yl)-1,2,3,4-tetrahydropyrimido[1,2-a]benzimidazole]
12 | 130 to 131 °C | CCN(CC)c1cccc2nc3n(c12)CCOC3c1ccc(Cl)cc1Cl (stereo not shown) [Example 501, 1-(2,4-Dichlorophenyl)-N,N-diethyl-3,4-dihydro-1H-[1,4]oxazino[4,3-a]benzimidazol-6-amine]
13 | 183 to 184 °C | CCN(CC)C(=O)c1cccc2nc3n(c12)CCCN3c1ccc(Cl)cc1Cl [Example 88, 1-(2,4-Dichlorophenyl)-N,N-diethyl-1,2,3,4-tetrahydropyrimido[1,2-a]benzimidazole-6-carboxamide]
14 | 191 to 193 °C | Cc1nc(N2CCOCC2)ccc1N1CCCn2c1nc1c(Cl)ccc(C(OC(F)F)C(F)(F)F)c12 (stereo not shown) [Example 296, 9-Chloro-6-[1-(difluoromethoxy)-2,2,2-trifluoroethyl]-1-(2-methyl-6-morpholin-4-ylpyridin-3-yl)-1,2,3,4-tetrahydropyrimido[1,2-a]benzimidazole]
15 | 170 to 171 °C | N#Cc1cccc2nc3n(c12)CCCN3c1ccc(Cl)cc1Cl [Example 84, 1-(2,4-Dichlorophenyl)-1,2,3,4-tetrahydropyrimido[1,2-a]benzimidazole-6-carbonitrile]
16 | 168 to 170 °C | CCOC(c1ccc(Cl)c2nc3n(c12)CCCN3c1ccc(OC)nc1C)C(F)(F)F (stereo not shown) [Example 281, 9-Chloro-6-(1-ethoxy-2,2,2-trifluoroethyl)-1-(6-methoxy-2-methylpyridin-3-yl)-1,2,3,4-tetrahydropyrimido[1,2-a]benzimidazole]
17 | 155 to 156 °C | COc1nc(C)c(N2CCCn3c2nc2c(Cl)ccc(C(NC(=O)C(F)F)C(F)(F)F)c23)c(C)n1 (stereo not shown) [Example 190, N-{1-[9-Chloro-1-(2-methoxy-4,6-dimethylpyrimidin-5-yl)-1,2,3,4-tetrahydropyrimido[1,2-a]benzimidazol-6-yl]-2,2,2-trifluoroethyl}-2,2-difluoroacetamide]
18 | 112 to 114 °C | CCN(CC)Cc1cccc2nc3n(c12)CCCN3c1ccc(Cl)cc1Cl [Example 89, N-{[1-(2,4-Dichlorophenyl)-1,2,3,4-tetrahydropyrimido[1,2-a]benzimidazol-6-yl]methyl}-N-ethylethanamine]
19 | 158 to 159 °C | CN(C)Cc1cccc2nc3n(c12)CCCN3c1ccc(Cl)cc1Cl [Example 87, 1-[1-(2,4-Dichlorophenyl)-1,2,3,4-tetrahydropyrimido[1,2-a]benzimidazol-6-yl]-N,N-dimethylmethanamine]
20 | 240 to 241 °C | OC1CN(Cc2cccc3nc4n(c23)CCCN4c2ccc(Cl)cc2Cl)C1 [Example 91, 1-{[1-(2,4-Dichlorophenyl)-1,2,3,4-tetrahydropyrimido[1,2-a]benzimidazol-6-yl]methyl}azetidin-3-ol]

Row | Compound | melting point
21 | CCC(O)c1ccc(Cl)c2nc3n(c12)CCCN3c1ccc(Cl)cc1Cl (single isomer, unassigned; (-)) [Example 438, (−)-1-[9-Chloro-1-(2,4-dichlorophenyl)-1,2,3,4-tetrahydropyrimido[1,2-a]benzimidazol-6-yl]propan-1-ol] | 221 to 223 °C
22 | CCC(O)c1ccc(Cl)c2nc3n(c12)CCCN3c1ccc(Cl)cc1Cl (stereo not shown) [Example 112, 1-[9-Chloro-1-(2,4-dichlorophenyl)-1,2,3,4-tetrahydropyrimido[1,2-a]benzimidazol-6-yl]propan-1-ol] | 244 to 245 °C
